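1) Cells in 96-well plates. 2) Compound, 48 h, 5 concentrations. 3) Linear interpolation between surrounding doses. 4) Unreached endpoint = highest concentration. Here, GI50 denotes the concentration required for 50% inhibition of growth. TGI marks complete inhibition of growth.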

Test systems include M14 melanoma; OVCAR-3 ovarian; OVCAR-8 ovarian; BT-549 breast; CCRF-CEM leukemia.
Assay in all cases: NCI tumour cell line growth inhibition, 48 h

As for `COc1ccc2nc(NC(=O)c3cccnc3Nc3cc(OC)c(OC)c(OC)c3)sc2c1`, the GI50 in the assay on M14 melanoma is 10.5 µM; in the assay on OVCAR-3 ovarian it was 8.92 µM; in the assay with OVCAR-8 ovarian it was 6.52 µM; in the assay on BT-549 breast, 11.6 µM; with CCRF-CEM leukemia it was 20.1 µM. In addition, the TGI was 29.6 µM with M14 melanoma; 21.5 µM in the assay with OVCAR-3 ovarian; 22.6 µM in the assay on OVCAR-8 ovarian; 28.2 µM in the assay on BT-549 breast; more than 100 µM in the assay with CCRF-CEM leukemia.

For the compound `Cn1cnc([N+](=O)[O-])c1Sc1ncn[nH]1`, the GI50 in the assay on M14 melanoma is more than 100 µM; in the assay on OVCAR-3 ovarian, 47.3 µM; in the assay on OVCAR-8 ovarian, more than 100 µM; in the assay on BT-549 breast, more than 100 µM; in the assay with CCRF-CEM leukemia, 28.6 µM. Further, the TGI with M14 melanoma, with OVCAR-3 ovarian, with OVCAR-8 ovarian, in the assay on BT-549 breast and in the assay on CCRF-CEM leukemia was more than 100 µM throughout.

Turning to `Cc1cccc2c(N)c3ccccc3nc12`, the GI50 was 1.87 µM in the assay on M14 melanoma; 2.13 µM with OVCAR-3 ovarian; 0.94 µM in the assay on OVCAR-8 ovarian; 3.23 µM with BT-549 breast; 2.54 µM with CCRF-CEM leukemia. Also, the TGI was determined as 5.19 µM in the assay on M14 melanoma; 10 µM with OVCAR-3 ovarian; 10.7 µM with OVCAR-8 ovarian; 12.9 µM in the assay on BT-549 breast; 10.2 µM with CCRF-CEM leukemia.

Regarding `C=CCCCc1ccc(C(O)CCCCCCCCCCCC)o1` (stereo not given), the GI50 was 18.9 µM with M14 melanoma; 19 µM in the assay on OVCAR-3 ovarian; 20.6 µM in the assay with OVCAR-8 ovarian; 22.6 µM in the assay on BT-549 breast; 23.1 µM in the assay on CCRF-CEM leukemia. The TGI with M14 melanoma was determined as 38.9 µM; in the assay with OVCAR-3 ovarian, 38.8 µM; in the assay on OVCAR-8 ovarian, 44.9 µM; in the assay with BT-549 breast, 43.3 µM; in the assay with CCRF-CEM leukemia, 56.8 µM.

As to `O=C(Nc1ccc(Cl)c(Cl)c1)OCCN1c2ccccc2Sc2ccccc21`, the TGI in the assay with M14 melanoma, with OVCAR-3 ovarian, with OVCAR-8 ovarian, in the assay with BT-549 breast and with CCRF-CEM leukemia was more than 10 µM throughout.

As for `CN1C(Cl)=NS(=O)(=O)c2ccccc21`, the TGI in the assay on M14 melanoma, with OVCAR-3 ovarian, in the assay with OVCAR-8 ovarian, in the assay on BT-549 breast and in the assay with CCRF-CEM leukemia was more than 100 µM throughout.

With `CCN(CC)CCOc1ccc(C(=O)/C=C\c2ccc(Cl)cc2Cl)cc1`, the GI50 in the assay with M14 melanoma was 2.17 µM; with OVCAR-3 ovarian, 3.84 µM; with OVCAR-8 ovarian it was 13.4 µM; with BT-549 breast it was 5.83 µM; in the assay with CCRF-CEM leukemia it was 2.57 µM. Also, the TGI in the assay with M14 melanoma was 5 µM; in the assay on OVCAR-3 ovarian, 14.3 µM; with OVCAR-8 ovarian, 28.1 µM; in the assay on BT-549 breast, 18.2 µM; with CCRF-CEM leukemia it was 9.09 µM.

As to `CN(C)CCN1C(=O)c2cccc3cccc(c23)C1=O`, the GI50 in the assay on M14 melanoma was more than 25 µM; with OVCAR-3 ovarian, 21.5 µM; with OVCAR-8 ovarian, 13.2 µM; in the assay on BT-549 breast, more than 25 µM; with CCRF-CEM leukemia, 14.5 µM. The TGI with M14 melanoma, with OVCAR-3 ovarian, in the assay on OVCAR-8 ovarian, in the assay on BT-549 breast and with CCRF-CEM leukemia was more than 25 µM throughout.

`O=C1NCCS(=O)(=O)/C1=C\C=C\c1cccc(C(F)(F)F)c1`: the GI50 in the assay on M14 melanoma was 1.89 µM; with OVCAR-3 ovarian, 2.85 µM; in the assay with OVCAR-8 ovarian it was 3.46 µM; in the assay on BT-549 breast it was 2.4 µM; in the assay on CCRF-CEM leukemia, 2.13 µM. In addition, the TGI with M14 melanoma worked out at 7.24 µM; with OVCAR-3 ovarian, 11.4 µM; with OVCAR-8 ovarian it was 16.8 µM; in the assay on BT-549 breast, 8.54 µM; with CCRF-CEM leukemia it was 10.7 µM.

Consider `Cn1c(=O)c(Oc2ccc(F)cc2F)cc2cnc(NCCS(C)(=O)=O)nc21`, for which the GI50 with M14 melanoma, with OVCAR-3 ovarian, in the assay on OVCAR-8 ovarian, in the assay on BT-549 breast and in the assay with CCRF-CEM leukemia was more than 25 µM each time. The TGI in the assay with M14 melanoma, in the assay on OVCAR-3 ovarian, in the assay on OVCAR-8 ovarian, with BT-549 breast and in the assay with CCRF-CEM leukemia was more than 25 µM each time.

`C=CS(=O)(=O)CCN1CC1`: the TGI in the assay with M14 melanoma, in the assay on OVCAR-3 ovarian, in the assay with OVCAR-8 ovarian, in the assay with BT-549 breast and in the assay with CCRF-CEM leukemia was more than 10 µM in each case.

As for `CCN(CC)CCSCCCNc1c2ccc(Cl)cc2nc2ccc(OC)cc12`, the GI50 was 1.71 µM in the assay with M14 melanoma; 1.3 µM in the assay on OVCAR-3 ovarian; 1 µM in the assay on OVCAR-8 ovarian; 1.77 µM with BT-549 breast; 1.26 µM in the assay with CCRF-CEM leukemia. The TGI in the assay on M14 melanoma came out at 3.46 µM; in the assay on OVCAR-3 ovarian, 4.18 µM; with OVCAR-8 ovarian, 3.54 µM; in the assay on BT-549 breast, 3.5 µM; with CCRF-CEM leukemia, 4.72 µM.

Take `O=C1OC(CN2CCOCC2)CN1/N=C/c1ccc([N+](=O)[O-])o1` (stereo not given): the TGI was 45.6 µM in the assay with M14 melanoma; 67.4 µM in the assay with OVCAR-3 ovarian; more than 100 µM in the assay on OVCAR-8 ovarian; more than 100 µM in the assay on BT-549 breast; more than 100 µM with CCRF-CEM leukemia.

As for `COC(=O)[C@@H](C)C[C@H](Cc1ccccc1)NC(=O)c1csc([C@@H](C[C@H](C(C)C)N(C)C(=O)[C@H](C)NC(=O)[C@H]2CCCCN2C)OC(C)=O)n1`, the GI50 with M14 melanoma is 0.859 µM; in the assay on OVCAR-3 ovarian, 0.551 µM; with OVCAR-8 ovarian, 3.67 µM; in the assay with BT-549 breast, 0.979 µM; in the assay on CCRF-CEM leukemia, 1.05 µM. Further, the TGI in the assay on M14 melanoma was 11.3 µM; in the assay with OVCAR-3 ovarian it was more than 25 µM; in the assay on OVCAR-8 ovarian it was more than 25 µM; in the assay with BT-549 breast, 17.5 µM; in the assay on CCRF-CEM leukemia it was more than 25 µM.

For the compound `CNC(=O)OCC1C2=C(C(=O)C(C)=C(N)C2=O)N2CC3C(N3C)C12OC` (stereo not given), the TGI in the assay on M14 melanoma, in the assay with OVCAR-3 ovarian, in the assay on OVCAR-8 ovarian, with BT-549 breast and with CCRF-CEM leukemia was more than 100 µM each time.

For `CCc1nc(N)nc(N)c1-c1ccc(Cl)c(N=CN(C)C)c1`, the TGI is more than 100 µM with M14 melanoma; more than 100 µM in the assay on OVCAR-3 ovarian; more than 100 µM with OVCAR-8 ovarian; more than 100 µM in the assay on BT-549 breast; 97.6 µM in the assay on CCRF-CEM leukemia.
